Data as given in PMC8286840, “Identifying SARS-CoV-2 antiviral compounds by screening for small molecule inhibitors of Nsp3 papain-like protease” (Biochemical Journal, 2021).
Structures can show the parent of a compound that is named as a salt. Where two headings read alike, the source gives them in different places.

Legend:
[1] = target: T1, SARS-CoV-2 PLpro (nsp3 1564–1878) (Severe acute respiratory syndrome coronavirus 2, UniProt P0DTD1); assay: biochemical; parameters: FRET-quenched peptide (Pro3) cleavage by PLpro, 10 min pre-incubation, slope over 20 min, normalised to no-compound control; conditions: high concentration screen, read-out: % of control remaining
[2] = target: T1, SARS-CoV-2 PLpro (nsp3 1564–1878); assay: biochemical; parameters: FRET-quenched peptide (Pro3) cleavage by PLpro, 10 min pre-incubation, slope over 20 min, normalised to no-compound control; conditions: low concentration screen, read-out: % of control remaining

In the case of OCCNC1CCCc2c1[nH]c1ccc(-c3ccccc3)cc21 (stereo not drawn) [CASIN], the remaining activity at 3.75 µM ([1]; Well no.=7373) is reported as 105% and the remaining activity at 1.25 µM ([2]; Well no.=7373) is reported as 102%.
COc1ccc(CCN(C)CCCC(C#N)(c2ccc(OC)c(OC)c2)C(C)C)cc1OC (racemic) showed a remaining activity at 3.75 µM ([1]; Well no.=1336) of 101% and a remaining activity at 1.25 µM ([2]; Well no.=1336) of 104%.
With O=C(Nc1ccccc1)c1cc([N+](=O)[O-])ccc1Cl [GW9662] the remaining activity at 3.75 µM ([1]; Well no.=1122) was 89.4% and the remaining activity at 1.25 µM ([2]; Well no.=1122) was 88.3%.
Molecule Nc1nc2c(ncn2[C@@H]2O[C@H](COP(=O)(O)OP(=O)(O)O)[C@@H](O)[C@H]2O)c(=O)[nH]1 [Guanosine 5'-diphosphate disodium salt] has a remaining activity at 3.75 µM ([1]; Well no.=8939) of 96.6% and a remaining activity at 1.25 µM ([2]; Well no.=8939) of 98.9%.
Work on C#CCN1C(C)=C(C(=O)OC)C(c2cccc([N+](=O)[O-])c2)C(C(=O)OCC)=C1C (stereo not drawn) [MRS 1845] yielded a remaining activity at 3.75 µM ([1]; Well no.=968) of 96.5% and a remaining activity at 1.25 µM ([2]; Well no.=968) of 95.8%.
O=C(C[C@H]1NCCC[C@@H]1O)Cn1cnc2cc(Br)c(Cl)cc2c1=O (racemic) [Halofuginone] showed a remaining activity at 3.75 µM ([1]; Well no.=7360) of 95.2% and a remaining activity at 1.25 µM ([2]; Well no.=7360) of 103%.
O=C(O)c1ccc(CO)o1 [5-Hydroxymethyl-2-furancarboxylic acid] gave a remaining activity at 3.75 µM ([1]; Well no.=6689) of 98.1% and a remaining activity at 1.25 µM ([2]; Well no.=6689) of 97.9%.
Cc1cccc(-c2[nH]c(C(C)(C)C)nc2-c2ccc3c(c2)OCO3)n1 [SB-505124] was tested, and the remaining activity at 3.75 µM ([1]; Well no.=4814) was 95.6% and the remaining activity at 1.25 µM ([2]; Well no.=4814) was 101%.
Work on CC(=O)O/N=C1/C(c2c(O)[nH]c3cc(Br)ccc23)=Nc2ccccc21 [BIO-Acetoxime] yielded a remaining activity at 3.75 µM ([1]; Well no.=5822) of 93.6% and a remaining activity at 1.25 µM ([2]; Well no.=5822) of 96%.
With O=c1ccc2cc(O)c(O)cc2o1 [Esculetin] the remaining activity at 3.75 µM ([1]; Well no.=3988) was 98.6% and the remaining activity at 1.25 µM ([2]; Well no.=3988) was 101%.
With Clc1ccc(N/N=C(\c2ccccc2)c2ccccn2)nc1 [(E)-5-chloro-2-(2-(phenyl(pyridin-2-yl)methylene)hydrazinyl)pyridine] the remaining activity at 3.75 µM ([1]; Well no.=5428) was 96.4% and the remaining activity at 1.25 µM ([2]; Well no.=5428) was 91.3%.
Cc1c(C(=O)O)c(O)cc2c1C(=O)c1c(O)c([C@@H]3O[C@H](CO)[C@@H](O)[C@H](O)[C@H]3O)c(O)c(O)c1C2=O [Carminic acid] was tested, and the remaining activity at 3.75 µM ([1]; Well no.=3101) was 103% and the remaining activity at 1.25 µM ([2]; Well no.=3101) was 102%.
With Nc1cc(Cl)c(NC2=NCCN2)c(Cl)c1 [p-Aminoclonidine hydrochloride] the remaining activity at 3.75 µM ([1]; Well no.=151) was 102% and the remaining activity at 1.25 µM ([2]; Well no.=151) was 102%.
Molecule CCN(CC)CCS(=O)(=O)[C@@H]1CCN2C(=O)c3coc(n3)CC(=O)C[C@H](O)/C=C(C)/C=C/CNC(=O)/C=C/[C@@H](C)[C@@H](C(C)C)OC(=O)[C@@H]12 [Dalfopristin] has a remaining activity at 3.75 µM ([1]; Well no.=7876) of 93.8% and a remaining activity at 1.25 µM ([2]; Well no.=7876) of 95%.
Molecule CCCCCCCC/C=C\CCCCCCCC(=O)OC[C@@H](O)COP(=O)(O)O [Lysophosphatidic acid] has a remaining activity at 3.75 µM ([1]; Well no.=4497) of 105% and a remaining activity at 1.25 µM ([2]; Well no.=4497) of 97.9%.
In the case of CCC(=O)Nc1ccc2ncnc(Nc3cccc(Br)c3)c2c1 [PD 174265], the remaining activity at 3.75 µM ([1]; Well no.=2501) is reported as 98.5% and the remaining activity at 1.25 µM ([2]; Well no.=2501) is reported as 101%.
CC(=O)OC/C=C(C)/C=C/C=C(C)/C=C/C1=C(C)CCCC1(C)C [Vitamin A acetate] gave a remaining activity at 3.75 µM ([1]; Well no.=1700) of 97.8% and a remaining activity at 1.25 µM ([2]; Well no.=1700) of 101%.
Cn1c(=O)c2c(ncn2CC2OCCO2)n(C)c1=O [Doxofylline] gave a remaining activity at 3.75 µM ([1]; Well no.=2020) of 99.1%, a remaining activity at 3.75 µM ([1]; Well no.=8323) of 94.2% and a remaining activity at 1.25 µM ([2]; Well no.=2020) of 100%. For the same molecule, the remaining activity at 1.25 µM ([2]; Well no.=8323) was 99.7%.
For CO[C@H]1[C@@H](O)[C@@H](C)O[C@H](O[C@H]2[C@H](Oc3cccc4c(O)c5c(=O)oc6ccc(C)c7c(=O)oc(c34)c5c67)O[C@H](C)[C@H](O)[C@@H]2O)[C@@H]1O [Chartreusin], the remaining activity at 3.75 µM ([1]; Well no.=3508) was 98.4% and the remaining activity at 1.25 µM ([2]; Well no.=3508) was 96.6%.
Nc1ccc(C(=O)O)cc1 [4-Aminobenzoic acid] showed a remaining activity at 3.75 µM ([1]; Well no.=6203) of 101% and a remaining activity at 1.25 µM ([2]; Well no.=6203) of 97.3%.
In the case of Cc1ccc(S(=O)(=O)N2CCC[C@H]2c2ccc(F)cc2)cc1 [Ro 67-7476], the remaining activity at 3.75 µM ([1]; Well no.=8053) is reported as 102% and the remaining activity at 1.25 µM ([2]; Well no.=8053) is reported as 99.6%.
CN(C)C(=O)CCSC(SCCC(=O)O)c1cccc(/C=C/c2ccc3ccc(Cl)cc3n2)c1 (stereo not drawn) [MK-571 (sodium salt)] was tested, and the remaining activity at 3.75 µM ([1]; Well no.=7859) was 91.2% and the remaining activity at 1.25 µM ([2]; Well no.=7859) was 91.6%.
With N=c1c[n+](N2CCOCC2)[n-]o1 [3-Morpholinosydnonimine hydrochloride] the remaining activity at 3.75 µM ([1]; Well no.=1041) was 103% and the remaining activity at 1.25 µM ([2]; Well no.=1041) was 102%.
Work on CC(=O)Oc1cc2c(s1)CCN(C(C(=O)C1CC1)c1ccccc1F)C2 (stereo not drawn) [Prasugrel] yielded a remaining activity at 3.75 µM ([1]; Well no.=6562) of 102% and a remaining activity at 1.25 µM ([2]; Well no.=6562) of 97%.
In the case of CCN(CC)C(=O)c1ccc(C2=CC3(CCNCC3)Oc3cccc(O)c32)cc1 [ADL-5859], the remaining activity at 3.75 µM ([1]; Well no.=8013) is reported as 85.8% and the remaining activity at 1.25 µM ([2]; Well no.=8013) is reported as 92.2%.
Molecule CCCCCCCCCCCCCCC(Br)C(=O)O (stereo not drawn) [2-bromohexadecanoic acid] has a remaining activity at 3.75 µM ([1]; Well no.=5893) of 106% and a remaining activity at 1.25 µM ([2]; Well no.=5893) of 106%.
Work on Cn1cnc2c(F)c(Nc3ccc(Br)cc3Cl)c(C(=O)NOCCO)cc21 [AZD6244] yielded a remaining activity at 3.75 µM ([1]; Well no.=3028) of 95.3% and a remaining activity at 1.25 µM ([2]; Well no.=3028) of 95.9%.
Work on CN(C)CC[C@@H](c1ccc(Cl)cc1)c1ccccn1 [Dexchlorpheniramine (maleate)] yielded a remaining activity at 3.75 µM ([1]; Well no.=6653) of 101% and a remaining activity at 1.25 µM ([2]; Well no.=6653) of 103%.
With NS(=O)(=O)c1cc2c(cc1Cl)N=CNS2(=O)=O [Chlorothiazide] the remaining activity at 3.75 µM ([1]; Well no.=82) was 100%, the remaining activity at 3.75 µM ([1]; Well no.=7460) was 102% and the remaining activity at 1.25 µM ([2]; Well no.=82) was 99.4%. The remaining activity at 1.25 µM ([2]; Well no.=7460) was 96%.
With Cn1cc(/C=C2\C(=O)Nc3cccnc32)c2ccccc21 [GW 441756 - 1,3-Dihydro-3-[(1-methyl-1H-indol-3-yl)methylene]-2H-pyrrolo[3,2-b]pyridin-2-one] the remaining activity at 3.75 µM ([1]; Well no.=2488) was 100% and the remaining activity at 1.25 µM ([2]; Well no.=2488) was 102%.
CC1(C)S[C@@H]2[C@H](NC(=O)[C@H](N)c3ccccc3)C(=O)N2[C@H]1C(=O)O [Ampicillin (sodium)] was tested, and the remaining activity at 3.75 µM ([1]; Well no.=8708) was 101% and the remaining activity at 1.25 µM ([2]; Well no.=8708) was 101%.
In the case of Cc1nnc(SCC2=C(C(=O)O)N3C(=O)[C@@H](NC(=O)Cn4cnnn4)[C@H]3SC2)s1 [Cefazolin sodium], the remaining activity at 3.75 µM ([1]; Well no.=178) is reported as 99.4% and the remaining activity at 1.25 µM ([2]; Well no.=178) is reported as 101%.
Molecule O=C(Nc1cccc(Cl)c1)Nc1ncc(CCNc2ncnc3ccsc23)s1 [SNS-314] has a remaining activity at 3.75 µM ([1]; Well no.=2893) of 101% and a remaining activity at 1.25 µM ([2]; Well no.=2893) of 101%.
Molecule N[C@@H](CC(=O)N1CCn2c(nnc2C(F)(F)F)C1)Cc1cc(F)c(F)cc1F [Sitagliptin phosphate monohydrate] has a remaining activity at 3.75 µM ([1]; Well no.=4644) of 102% and a remaining activity at 1.25 µM ([2]; Well no.=4644) of 105%.
